Measured values: patent US12569460B2, “Application of thyroid hormones and thyroid hormone analogues to preparation of drugs for treating sickle-cell disease” (RUIJIN HOSPITAL, SHANGHAI JIAO TONG UNIVERSITY SCHOOL OF …, priority 2020, dated 2026)

Assays:
ζ-globin gene (hbae5) [1] = assay: qPCR of ζ-globin gene (hbae5) expression in zebrafish embryos; format: in vivo; details: 5 μmol/L, 24 hours
Protocol: (§1) K562 cells were cultured in RPMI 1640 medium supplemented with 10% (v/v) fetal bovine serum; Hemin was dissolved into 0.2 mol/L NaOH solution, and the working concentration for treating K562 cells is 20 μmol/L; Triac, T3 and T4 were dissolved into dimethyl sulfoxide (DMSO), and the working concentration for treating K562 cells and zebrafish embryos is 20 μmol/L and 5 μmol/L, respectively.
After treatment with Triac, T3 and T4 for 24 hours, respectively, zebrafish embryos were collected. TRIzol reagent (Invitrogen) was used to extract total RNA, then a reverse transcription kit (ReverTra Ace, TOYOBO) was used to synthesize cDNA, and finally, a SYBRGreen Realtime PCR Master Mix (TOYOBO) reagent was used to perform quantitative PCR.
(§2) The quantitative PCR reaction system is:
(§3) The quantitative PCR reaction conditions are: • hot start: 95° C., 10 minutes; • denaturation: 95° C., 10 seconds; and • annealing/extension: 60° C., 30 seconds. • 40 circles. Analysis of a […]

ζ-globin gene (hbae5) [2] = assay: Whole-mount mRNA in situ hybridization (WISH) of ζ-globin gene (hbae5) in zebrafish embryos; format: in vivo; details: 5 μmol/L, 24 hours
Protocol: as §1
After treatment with Triac, T3 and T4 for 24 hours, respectively, zebrafish embryos were fixed by 4% paraformaldehyde. The expression of ζ-globin gene (hbae5) was detected by Whole-mount mRNA in situ hybridization (WISH).

ζ-globin gene (HBZ) = assay: qPCR of ζ-globin gene (HBZ) expression in hemin-treated K562 cells; format: cell-based, human; details: hemin plus Triac 20 μmol/L, 72 hours
Protocol: as §1
K562 cells were treated with hemin or hemin plus Triac for 72 hours, respectively, centrifugation was performed at 2000 rpm for 5 minutes to collect cells, a TRIzol reagent (Invitrogen) was used to extract total RNA, then a reverse transcription kit (ReverTra Ace, TOYOBO) was used to synthesize cDNA, and finally, a SYBR Green Realtime PCR Master Mix (TOYOBO) reagent was used to perform quantitative PCR.
as §2, §3

Row | SMILES | expression of ζ-globin gene (hbae5) up-regulated (qPCR) (ζ-globin gene (hbae5) [1]) | expression of ζ-globin gene (hbae5) by WISH (ζ-globin gene (hbae5) [2]) | expression of ζ-globin gene (HBZ) up-regulated (qPCR) (ζ-globin gene (HBZ))
1 | N[C@@H](Cc1cc(I)c(Oc2ccc(O)c(I)c2)c(I)c1)C(=O)O [T3, 3,3′,5-Triiodo-L-thyronine] | 31 folds | significantly induce the expression | –
2 | N[C@@H](Cc1cc(I)c(Oc2cc(I)c(O)c(I)c2)c(I)c1)C(=O)O [T4, 3,3′,5,5′-tetraiodothyronine] | 41 folds | significantly induce the expression | –
3 | O=C(O)Cc1cc(I)c(Oc2ccc(O)c(I)c2)c(I)c1 [Triac, 2-[4-(4-Hydroxy-3-iodophenoxy)-3,5-diiodophenyl] acetic acid] | 76 folds | significantly induce the expression | 50.9 folds
